Experimental data from ChEMBL document CHEMBL1144762, “Diterpenoids from the roots of Suregada glomerulata” (J Nat Prod, 2008).
Converted amounts (≈) assume the structure as drawn.

Experiments:
Assay type in all cases: functional, cell-based
[1] = system: A549; assay: Cytotoxicity against human A549 cells by MTT assay
[2] = Cytotoxicity against human Bel 7402 cells by MTT assay
[3] = Cytotoxicity against human BGC 823 cells by MTT assay
[4] = system: HCT-8; assay: Cytotoxicity against human HCT8 cells by MTT assay
[5] = system: A2780; assay: Cytotoxicity against human A2780 cells by MTT assay

Compound | IC50 [1] [µg/mL] | IC50 [2] [µg/mL] | IC50 [3] [µg/mL] | IC50 [4] [µg/mL] | IC50 [5] [µg/mL]
CC1=C2C(=C[C@H]3[C@]4(C)CCC(=O)C(C)(C)[C@H]4CC[C@]34O[C@H]24)OC1=O | > 10 | 7.53 (≈ 22.9 µM) | > 10 | > 10 | 8.22 (≈ 25 µM)
O=c1[nH]cc(F)c(=O)[nH]1 [FLUOROURACIL] | 0.18 (≈ 1.38 µM) | 0.54 (≈ 4.15 µM) | 0.7 (≈ 5.38 µM) | 0.54 (≈ 4.15 µM) | 0.65 (≈ 5 µM)
